Measured values: ChEMBL document CHEMBL1201862, “PubChem BioAssay data set” (2004)
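How tested: cells in 96-well plates exposed to compound for 48 hours at five concentrations. GI50 is the concentration that inhibits growth by half.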 Activity calls are given as the source filed them. Cut-off read from the data, not from the text of the source: active = GI50 up to about 1.1 µM and inactive = higher.

Key:
Assay in all cases: NCI-60 cell line screen, 48 h
HOP-62 = system: HOP-62
ACHN = system: ACHN
Malme-3M = system: Malme-3M
KM12 = system: KM12
DU-145 = system: DU-145
PC-3 = system: PC-3
MDA-MB-435 = system: MDA-MB-435
CAKI-1 = system: CAKI-1
SK-MEL-2 = system: SK-MEL-2
MDA-MB-231 = system: MDA-MB-231
UACC-257 = system: UACC-257
UACC-62 = system: UACC-62
BT-549 = system: BT-549
COLO 205 = system: COLO 205
OVCAR-8 = system: OVCAR-8
SW-620 = system: SW-620
MCF7 = system: MCF7
SK-MEL-28 = system: SK-MEL-28
NCI-H522 = system: NCI-H522
MDA-N = system: MDA-N

Measured: GI50

O=C(OC(=C(c1ccccc1)c1ccccc1)N1CCCC1=S)C(c1ccccc1)c1ccccc1
inactive: HOP-62 > 10 µM | ACHN 5.07 µM | Malme-3M > 10 µM | KM12 4.5 µM | DU-145 > 10 µM | PC-3 3.24 µM | MDA-MB-435 > 10 µM | CAKI-1 > 10 µM | SK-MEL-2 > 10 µM | MDA-MB-231 7.82 µM | UACC-257 > 10 µM | UACC-62 > 10 µM | BT-549 5.05 µM | COLO 205 2.21 µM | OVCAR-8 7.96 µM | SW-620 > 10 µM | MCF7 7.67 µM | SK-MEL-28 > 10 µM

CCOC(=O)C1=C(c2ccccc2)N(C)c2ccccc2S1
inactive: HOP-62 36.4 µM | ACHN 24.1 µM | Malme-3M 40.6 µM | DU-145 44.2 µM | PC-3 29.9 µM | MDA-MB-435 33.2 µM | CAKI-1 31 µM | SK-MEL-2 23.2 µM | MDA-MB-231 29.6 µM | UACC-257 31.6 µM | UACC-62 19 µM | BT-549 21.5 µM | COLO 205 31.3 µM | OVCAR-8 33.6 µM | SW-620 44.4 µM | NCI-H522 25.6 µM | MCF7 36 µM | SK-MEL-28 38.9 µM

C=C1CC(C#N)(C#N)[C@@H]2CC3CCCC3[C@H]12.C=C1CC(C#N)(C#N)[C@H]2C3CCCC3C[C@@H]12 (stereo partly drawn)
inactive: HOP-62 10 µM | ACHN 24.8 µM | KM12 20.1 µM | DU-145 38.4 µM | PC-3 30.1 µM | MDA-MB-435 19.3 µM | MDA-MB-231 22 µM | UACC-62 25.9 µM | BT-549 25.9 µM | OVCAR-8 17.8 µM | SW-620 15 µM | MCF7 16.3 µM | SK-MEL-28 21.2 µM

O=C1C=CC(=O)c2c(O)nc(CBr)nc21
inactive: HOP-62 > 100 µM | ACHN > 100 µM | Malme-3M > 100 µM | KM12 52 µM | DU-145 > 100 µM | PC-3 42.2 µM | MDA-MB-435 30.4 µM | CAKI-1 > 100 µM | SK-MEL-2 > 100 µM | MDA-MB-231 61 µM | UACC-257 > 100 µM | UACC-62 46.5 µM | COLO 205 > 100 µM | OVCAR-8 > 100 µM | NCI-H522 > 100 µM | MCF7 56.2 µM | SK-MEL-28 > 100 µM | MDA-N 36.1 µM

O=C1/C(=C/c2ccco2)NC(=S)N1CN1CCOCC1
inactive: HOP-62 > 100 µM | ACHN > 100 µM | KM12 > 100 µM | DU-145 > 100 µM | PC-3 > 100 µM | MDA-MB-435 > 100 µM | SK-MEL-2 > 100 µM | MDA-MB-231 > 100 µM | UACC-257 > 100 µM | UACC-62 > 100 µM | COLO 205 > 100 µM | OVCAR-8 > 100 µM | SW-620 > 100 µM | MCF7 > 100 µM | SK-MEL-28 > 100 µM | MDA-N > 100 µM

COc1cc(N(CCC#N)CCC#N)ccc1C(/N=N/c1ccccc1C)=N\NC(=O)c1ccc(C)cc1
inactive: HOP-62 > 100 µM | Malme-3M 34.7 µM | KM12 49.1 µM | DU-145 > 100 µM | PC-3 59.3 µM | MDA-MB-435 29.3 µM | CAKI-1 > 100 µM | SK-MEL-2 43.9 µM | MDA-MB-231 25.5 µM | UACC-257 61.2 µM | UACC-62 43.4 µM | BT-549 98.2 µM | COLO 205 33.7 µM | OVCAR-8 71 µM | SW-620 72.9 µM | NCI-H522 25.2 µM | SK-MEL-28 > 100 µM | MDA-N 23.8 µM

S=C1/C(=N/c2ccccc2)N(c2ccccc2)/C(=N\c2ccccn2)N1c1ccccc1
inactive: HOP-62 16.3 µM | ACHN 4.32 µM | Malme-3M 16.9 µM | KM12 12.9 µM | DU-145 19.8 µM | PC-3 12.8 µM | MDA-MB-435 15.2 µM | CAKI-1 15.5 µM | SK-MEL-2 11.9 µM | MDA-MB-231 16.6 µM | UACC-257 14.3 µM | UACC-62 2.77 µM | COLO 205 10.8 µM | OVCAR-8 14.5 µM | SW-620 14 µM | NCI-H522 1.63 µM | SK-MEL-28 16.8 µM | MDA-N 6.3 µM

CNn1c(C)n[nH]c1=O
inactive: HOP-62 > 100 µM | ACHN > 100 µM | Malme-3M 96.8 µM | KM12 > 100 µM | DU-145 > 100 µM | PC-3 > 100 µM | MDA-MB-435 > 100 µM | CAKI-1 > 100 µM | SK-MEL-2 > 100 µM | MDA-MB-231 > 100 µM | UACC-257 > 100 µM | UACC-62 > 100 µM | BT-549 > 100 µM | COLO 205 > 100 µM | OVCAR-8 > 100 µM | SW-620 > 100 µM | NCI-H522 > 100 µM | MCF7 > 100 µM | SK-MEL-28 > 100 µM
